Patent US20060247258A1, “Use of levocetirizine for the treatment of persistent allergic rhinitis” (UCB Farchim S.A., priority 2002, published 2006)
Structures can show the parent of a compound that is named as a salt.

Tests used:
Format in all cases: in vivo, adult patients
[1] = test system: persistent allergic rhinitis; experiment: Clinical study in persistent allergic rhinitis: safety of long-term treatment; settings: 5 mg once per day; 6 month treatment
From the text: The aim of the study relative to the clinical effect of levocetirizine dihydrochloride was to establish on the intention to treat (ITT population) whether a 6 month levocetirizine dihydrochloride treatment can improve the quality of life and clinical symptoms from adult patients suffering from persistent allergic rhinitis, when compared to placebo. For clinical symptoms, it was considered that a 1 point score reduction is clinically relevant. For health-related quality of life, it was considered that a 0.36 point score reduction is relevant. Secondary parameters of efficacy included different durations of treatment, different symptoms, different quality of life questionnaires, the incidence of co-morbidities suspected to be linked to allergic rhinitis and pharmaco-economic variables. The safety of this long-term treatment with levocetirizine dihydrochloride has also been evaluated.
At each of the eight visits, diary book entries (T5SS, RQLQ, SF-36, indirect cost pharmaco-economic parameters, concomitant medication, outpatient consultations and adverse events) were verified and transferred into the Clinical Record Form and direct cost pharmaco-economic parameters were recorded. Patients underwent a physical examination, including the measurement of vital signs. […]
Adverse events were recorded by the patients on diary cards and discussed with the investigator at each visit. […]

[2] = test system: persistent allergic rhinitis; experiment: Clinical study in persistent allergic rhinitis: Total 5 Symptoms Score (T5SS)
From the text: (§1) For clinical symptoms, it was considered that a 1 point score reduction is clinically relevant. For health-related quality of life, it was considered that a 0.36 point score reduction is relevant. Secondary parameters of efficacy included different durations of treatment, different symptoms, different quality of life questionnaires, the incidence of co-morbidities suspected to be linked to allergic rhinitis and pharmaco-economic variables.
(§2) The target population of this example consisted of adults aged more than 18 years suffering from persistent allergic rhinitis [WHO Initiative on Allergic Rhinitis and its Impact on Asthma (ARIA), 2000, pages S147-S149]. To be enrolled, the subjects needed to have sufficient rhinitis symptoms during the selection period. Excluded were patients with ENT or eye infection during the 2-weeks preceding initial visit.
(§3) The study was a prospective, randomized, double blind, parallel group, and placebo-controlled study with levocetirizine dihydrochloride.
(§4) The severity of clinical symptoms was rated by the T5SS (sneezing, rhinorrhea, nasal pruritus, ocular pruritus and nasal congestion) evaluated each by a score from 0 to 3. The impact on health related quality of life was measured using the Rhinoconjunctivitis Quality of Life Questionnaire (RQLQ) (E. JUNIPER and G. H. GUYAIT, Development and testing of a new measure of health status for clinical trials in rhinoconjunctivitis, Clinical and Experimental Allergy 1991; 21:77-83; E. JUNIPER, Measuring Health Related Quality of Life in rhinitis, J. Allergy Clin. Immunol. 1997; 99:S742-9).
(§5) Study treatment lasted for 6 months. After the treatment period, patients entered a 1-week follow-up period.
(§6) The primary end-point for efficacy was a decrease of the T5SS over the first 4 weeks of at least 1 unit of score. The primary end-point for quality of life was a decrease of RQLQ after 4 weeks of at least 0.36 unit of the total score.
(§7) Secondary parameters of efficacy included the mean T5SS, the RQLQ and the SF-36 questionnaire at the different time points of the study, and the incidence and the duration of rescue medication over 6 months.
(§8) Oral tablets of levocetirizine dihydrochloride (5 mg) and matching placebo, similar in appearance, shape and taste were used. The recommended study dosage was 1 tablet per day.

[3] = test system: persistent allergic rhinitis; experiment: Clinical study in persistent allergic rhinitis: Rhinoconjunctivitis Quality of Life Questionnaire (RQLQ)
From the text: as §1, §2, §3, §4, §5, §6, §7, §8
Sample size was based on 40% relative improvement over placebo in the RQLQ questionnaire, assuming an improvement from baseline for placebo of 0.9. For this questionnaire this corresponds to a difference of 0.36 vs. placebo.

[4] = test system: persistent allergic rhinitis; experiment: Clinical study in persistent allergic rhinitis: individual rhinitis symptom scores (nasal congestion, sneezing, rhinorrhea, nasal pruritus, ocular pruritus); settings: for Effect on nasal congestion / nasal obstruction (in words): long term treatment
From the text: as §1, §2, §3, §4, §5
Exploratory parameters of efficacy included the mean of each individual rhinitis score, each RQLQ domain and each scale of the SF-36 questionnaire at the different time points of the study, the Global Evaluation Scale after 4 weeks and 6 months, the incidence of co-morbidities suspected to be linked to allergic rhinitis and the pharmaco-economic direct and indirect costs over 6 months.
as §8

[5] = 5 mg once per day, 6 month treatment
[6] = 5 mg oral tablet once per day, over the first four weeks of treatment, ITT population
[7] = 5 mg oral tablet once per day, after first 4 weeks of treatment, ITT population
[8] = 5 mg, 3 months, evaluated over the 24 hours, ITT population
[9] = 5 mg, 4.5 months, evaluated over the 24 hours, ITT population
[10] = 5 mg, 6 months, evaluated over the 24 hours, ITT population
[11] = 5 mg, First 4 weeks, evaluated over the 24 hours, ITT population
[12] = 5 mg, Week 1, evaluated over the 24 hours, ITT population

O=C(O)COCCN1CCN([C@H](c2ccccc2)c2ccc(Cl)cc2)CC1 [Lctz, levocetirizine dihydrochloride]
Safety of long-term administration [1]: did not involve particular safety concerns | Duration of effect on rhinitis [2, 5]: has an effect on rhinitis up to 6 months | Tachyphylaxis (need to adjust the dosing schedule) ([2]; 5 mg once per day, during 6 months): lack of tachyphylaxis | Mean T5SS, Adjusted mean (adjusted for baseline score and country) [2, 6]: 5.43 | Mean T5SS, Mean (SD) [2, 6]: 5.53 (2.52) | Mean T5SS, Diff. vs. placebo (95% CI), placebo minus Lctz 5 mg ([2]; 5 mg oral tablet once per day, over the first four weeks of treatment, ITT population, dihydrochloride): 1.14 | Duration of effect on quality of life [3, 5]: has an effect on quality of life up to 6 months | Change from baseline of the RQLQ Overall Score, Adjusted Mean (adjusted for baseline score and country) [3, 7]: −1.49 | Change from baseline of the RQLQ Overall Score, Mean [3, 7]: −1.50 | Change from baseline of the RQLQ Overall Score, Diff. vs. placebo (95% CI), placebo minus Lctz 5 mg ([3]; 5 mg oral tablet once per day, after first 4 weeks of treatment, ITT population, dihydrochloride): 0.48 | Improvement of sneezing, rhinorrhea, nasal pruritus and ocular pruritus ([4]; 5 mg once per day, at all time points, vs. placebo): statistically significant improvement | Effect on nasal congestion / nasal obstruction (in words) ([4]; 5 mg once per day, listed as Levocetirizine, dihydrochloride): active on nasal obstruction after a long term treatment (equal or more than 3 months) | Effect on nasal congestion / nasal obstruction (in words) ([4]; 5 mg once per day, listed as levocetirizine dihydrochloride, dihydrochloride): has an effect on nasal congestion after 3 months | Nasal congestion symptoms, Adjusted Mean [4, 8]: 1.16 | Nasal congestion symptoms, Mean (SD) [4, 8]: 1.22 (0.78) | Nasal congestion symptoms, Diff. vs. (95% CI), placebo minus Lctz ([4]; 5 mg, 3 months, evaluated over the 24 hours, ITT population, dihydrochloride): 0.15 | Nasal congestion symptoms, Adjusted Mean [4, 9]: 1.11 | Nasal congestion symptoms, Mean (SD) [4, 9]: 1.17 (0.77) | Nasal congestion symptoms, Adjusted Mean [4, 10]: 1.08 | Nasal congestion symptoms, Mean (SD) [4, 10]: 1.13 (0.76) | Nasal congestion symptoms, Adjusted Mean [4, 11]: 1.40 | Nasal congestion symptoms, Mean (SD) [4, 11]: 1.44 (0.78) | Nasal congestion symptoms, Adjusted Mean [4, 12]: 1.58 | Nasal congestion symptoms, Mean (SD) [4, 12]: 1.61 (0.83)
